Assay results: PubChem BioAssay (NCI)
“And” between values parts separate entries of the source, which are not always exact repeats. Equal entries are not always repeated.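 How tested: cells in 96-well plates exposed to compound for 48 hours at five concentrations. GI50 is the concentration that inhibits growth by half. Definition used: TGI = concentration required for complete inhibition of growth.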

Assays:
Assay in all cases: DTP human tumour cell line panel, 48 h
HCT-116 colon = tested on: HCT-116 colon
HT29 colon = tested on: HT29 colon
MALME-3M melanoma = tested on: MALME-3M melanoma
SF-539 CNS = tested on: SF-539 CNS
SNB-19 CNS = tested on: SNB-19 CNS
UACC-62 melanoma = tested on: UACC-62 melanoma
SR leukemia = tested on: SR leukemia

| SMILES | GI50 (HCT-116 colon) [nM] | TGI (HCT-116 colon) | GI50 (HT29 colon) [µM] | TGI (HT29 colon) | GI50 (MALME-3M melanoma) | TGI (MALME-3M melanoma) | GI50 (SF-539 CNS) | TGI (SF-539 CNS) | GI50 (SNB-19 CNS) | TGI (SNB-19 CNS) | GI50 (UACC-62 melanoma) | TGI (UACC-62 melanoma) | GI50 (SR leukemia) [µM] | TGI (SR leukemia) |
| --- | --- | --- | --- | --- | --- | --- | --- | --- | --- | --- | --- | --- | --- | --- |
| O=C1c2ccccc2-c2c1c1ccccc1c(=O)n2CCCNCCCn1ccnc1 | 598 | 2.01 µM | 1.21 | > 33.4 µM | 3.33 µM | 13.4 µM | 0.908 µM | 2.48 µM | 1.47 µM | 13.1 µM | 1.72 µM | 5.95 µM | – | – |
| CN[C@@H](C)C(=O)N[C@H](C(=O)N1CCC[C@H]1C(=O)N[C@H]1c2ccccc2C[C@H]1OCC#CC#CCO[C@@H]1Cc2ccccc2[C@@H]1NC(=O)[C@@H]1CCCN1C(=O)[C@@H](NC(=O)[C@H](C)NC)C1CCCCC1)C1CCCCC1 | 3680 | 14.1 µM | 3.68 | 12.6 µM | < 0.01 µM | – | < 0.01 µM | 1.28 µM | 3.24 µM | 8.87 µM | 4.57 µM | 9.97 µM | 0.456 | 3.16 µM |
| O=C1Nc2ccc(C(=O)c3ccco3)cc2/C1=C/c1cc(Cl)c(O)c(Cl)c1 | 1870 | > 25 µM | 5.75 | > 21.2 µM | 1.66 µM | 11.1 µM | 3.93 µM | 9.49 µM | 8.52 µM | > 25 µM | 2.63 µM | 7.91 µM | 3.03 | 18.8 µM |
| COc1cc(Nc2nccc(Nc3ccc4c(C)[nH]nc4c3)n2)cc(OC)c1OC | 2260 | 6.42 µM | 0.916 | 4.49 µM | 1.4 µM | 10.2 µM | 1.72 µM | 6.11 µM | 4.91 µM | 19.9 µM | 1.08 µM | 4.82 µM | 1.42 | > 15.3 µM |
| O=S(=O)(NC1=NCCN1C(=S)SN1CCn2c1nsc2=S)c1ccc(Br)cc1 | 24700 | 73.2 µM | 42.5 | > 100 µM | 11.7 µM | 56.3 µM | 18.6 µM | 38.9 µM | > 100 µM | > 100 µM | 25.2 µM | 94.3 µM | 24.2 | 74.1 µM |
| O=Cc1ccc(-c2cc(C=O)c(-c3cccs3)[nH]2)s1 | 64200 | 75 µM and > 100 µM | – | 75 µM | > 100 µM | 75 µM and > 100 µM | – | 75 µM | > 100 µM | 75 µM and > 100 µM | 46 µM | 75 µM and > 100 µM | 31.6 | 72.7 µM and > 100 µM |
| CC(C)(C#N)c1cc(Cn2cncn2)cc(C(C)(C)C#N)c1 | – | – | 3050 | > 10000 µM | – | – | 2450 µM | > 10000 µM | > 10000 µM | > 10000 µM | 768 µM | > 10000 µM | – | – |
| O=c1c2cc(Cl)ccc2oc2ccc(OCCCCCN3CCCCC3)cc12 | 1750 | 6.8 µM | 1.27 | 3.31 µM | 6.86 µM | 14.1 µM | 4.21 µM | 10.6 µM | 6.83 µM | 13.5 µM | 1.01 µM | 2.06 µM | 1.47 | 5.47 µM |
| CO[C@@H]1/C=C\C=C(/C)C(=O)NC2=CC(=O)C(NCCN(C)C)=C(C[C@@H](C)C[C@@H](OC)[C@@H](O)[C@H](C)/C=C(\C)[C@H]1OC(N)=O)C2=O | 19.2 | 1.52 µM and 2.3 µM | < 0.01 | 4.54 µM and 3.96 µM | – | 3.73 µM and 0.562 µM | < 0.01 µM and 0.0319 µM | 11.6 µM and 3.38 µM | – | 7.99 µM and 15.5 µM | – | 1.25 µM and 3.87 µM | – | 10.6 µM |
| CC12OC(c3ccccc3)=CC(c3ccc(Cl)cc3)=C1C(c1ccccc1)=CC2=O (stereo not drawn) | 46100 | > 100 µM | 27.7 | > 100 µM | > 100 µM | > 100 µM | > 100 µM | > 100 µM | > 100 µM | > 100 µM | 49.4 µM | > 100 µM | 19.1 | 67 µM |
| COC(=O)CCc1cc(OC)c2c(c1)C(C(=O)OC)C(c1ccc(OC)c(OC)c1)O2 (stereo not drawn) | – | > 100 µM | – | > 100 µM | > 100 µM and 20 µM | > 100 µM | > 100 µM and 11.1 µM | > 100 µM and 47.3 µM | > 100 µM and 15.8 µM | > 100 µM | > 100 µM and 16.7 µM | > 100 µM | – | > 100 µM |
| CSc1ccc(C2=NN(C(=O)c3ccc(F)cc3)C(c3ccc(F)cc3)C2)cc1 (stereo not drawn) | 3610 | 12.7 µM | 4.37 | 15.8 µM | 12.1 µM | 26 µM | 19.4 µM | 38.1 µM | 14.3 µM | 27.5 µM | 11.7 µM | 24.5 µM | 1.71 | 5.95 µM |
| O=[N+]([O-])c1cc(Cl)c(Cl)c([N+](=O)[O-])c1Cl | 624 | 2.12 µM | 1.18 | 4 µM | 0.473 µM | 2.18 µM | 2.53 µM | 6.94 µM | 6.55 µM | 22.6 µM | 1.94 µM | 4.35 µM | 0.538 | 4.93 µM |
| O=C(/C=C/c1ccc(F)cc1)c1ccc(Cl)cc1Cl | 16600 | 31.3 µM | – | – | > 100 µM | > 100 µM | > 100 µM | > 100 µM | 23.7 µM | 77.8 µM | 39.8 µM | > 100 µM | 26.4 | 86.5 µM |
| Cc1cc(C)c([O-])c(CN(C)CCN(C)Cc2cc(C)cc(C)c2[O-])c1.O=C([O-])c1cccc(C(=O)[O-])n1.[Ti+4] | 383 | 22.3 µM | – | – | 1.45 µM | 5.21 µM | – | – | 3.25 µM | > 100 µM | – | – | – | – |
| COc1ccc(N2C(=O)CC(Cl)C2=O)cc1 (stereo not drawn) | – | 32.2 µM | – | 31.7 µM | – | 32.8 µM | – | 32.5 µM | – | > 100 µM | – | 46.5 µM | – | – |
| C=CCC(N[C@H](CO)c1ccccc1)c1ccc2ccccc2n1 (stereo partly drawn) | > 100000 | > 100 µM | > 100 | > 100 µM | > 100 µM | > 100 µM | > 100 µM | > 100 µM | – | – | > 100 µM | > 100 µM | > 100 | > 100 µM |
| O=c1c2c(nc3n1CCS3)[nH]c1ccccc12 | > 100000 | > 100 µM | > 100 | > 100 µM | > 100 µM | > 100 µM | > 100 µM | > 100 µM | > 100 µM | > 100 µM | 62.4 µM | > 100 µM | – | – |
| CCN(CC)CCC(=O)NC1c2ccc(Cl)cc2Oc2c(C)cccc21 (stereo not drawn) | – | 30.2 µM | – | 28.9 µM | – | – | – | 27.7 µM | – | 27.1 µM | – | 34 µM | – | 39.1 µM |
